Test system: CD8^+T cells
Experiment: Multifunctionality of CD8^+T cells of primary lung cancer patients (stage I) after metformin treatment of PBMC (flow cytometer)
Format: cell-based, human
Settings: for Decrease, IFNγ 1-cytokine-producing cell / Decrease, IFNγ/IL-2 2-cytokine-producing cell / Decrease, IFNγ/TNFα 2-cytokine-producing cell / Decrease, IFNγ/TNFα/IL2 3-cytokine-producing cell / Increase, IFNγ 1-cytokine-producing cell / Increase, IFNγ/IL-2 2-cytokine-producing cell / Increase, IFNγ/TNFα 2-cytokine-producing cell / Increase, IFNγ/TNFα/IL2 3-cytokine-producing cell / No Change, IFNγ 1-cytokine-producing cell / No Change, IFNγ/IL-2 2-cytokine-producing cell / No Change, IFNγ/TNFα 2-cytokine-producing cell / No Change, IFNγ/TNFα/IL2 3-cytokine-producing cell: Cancer Patients (stage I)
Protocol: 1. Peripheral blood was obtained from a test subject, and PBMC was separated by a density-gradient centrifugation using a lymphocyte-separating reagent Ficoll-Paque® (GE Healthcare). 3 mL of Ficoll-Paque® was dispensed in a 15-mL tube. 8 mL of the peripheral blood was gently placed on the reagent. At this time, care should be taken not to mix Ficoll-Paque® with the peripheral blood. Centrifugation was performed at 400 g for 30 minutes, thereby separating PBMC. 2. The separated PBMC was preserved in a −150° C. freezer or liquid nitrogen using Bambang Car cell preservation liquid by adjusting the cell number to 2.0×10^6 cell/tube. 3. In the test, the thawed PBMC was cultured for 1 to 10 hours in the presence or absence of […]. The culture was performed using a 24-well plate, and the cell number was adjusted to about 5.0×10^5 cell/well. 4. The cells were collected after 1 to 10 hours, washed with medium, and cultured in the presence of a cell activation reagent (potent nanomolar activator of protein kinase C (PMA, 50 ng/mL), ionomycin (1 μM)) for 6 hours, thereby non-specifically stimulating T cells. At this time, BD Gorgi Stop™ was added to keep the produced cytokines inside the cells. 5. The cells were isolated and washed twice with a cell-staining buffer. First, staining of CD8, PD-1, Tim-3, which are molecules expressed on the T cell surface, was performed. In the staining, a staining buffer was added in an amount of 50 μL per sample. The culture was performed at 4° C. for 30 minutes. 6. The cells were collected and washed twice with a cell-staining buffer. 500 μL of BD Cytofix/Cytoperm was added and cultured at 4° C. for 30 minutes. 7. The cells were collected and washed twice with BD Perm/Wash™. Staining of cytokines IL-2, TNFα, and IFNγ was performed. In the staining, BD Perm/Wash™ was added in an amount of 50 μL per sample. The culture was performed at 4° C. for 30 minutes. 8. The cells were collected and washed twice with BD Perm/Wash™, and 200 μL of BD Perm/Wash™ was added. 9. Analysis was performed using a FACSCanto™ II flow cytometer (Becton, Dickinson and Company).
Among the PBMC treated with PMA/ionomycin in the method shown in (2) above, first, a gate was applied to CD8^+T cells using a FACSCanto™ II flow cytometer (Becton, Dickinson and Company), and then […] were removed by FSC-A and FSC-H. Using parameters FSC-A and SSC-A, a gate was applied to a lymphocyte group, thereby analyzing expression of PD-1 and Tim-3. Further, intracellular cytokines IFNγ, TNFα, and IL-2 were stained, and multifunctionality of CD8^+T cells contained in the PBMC was analyzed (FIG. 1).
Each PBMC obtained from 31 primary lung cancer patients (stage I) was cultured for an hour in the same manner as in (4) in the presence or absence of metformin. After metformin was removed, each resulting PBMC was analyzed. In a representative example, the CD8^+T cells untreated with metformin were determined to be 0.92%, and the CD8^+T cells treated with metformin were determined to be 1.44% (FIG. 3). Accordingly, it was judged that, in comparison with healthy subjects, multifunctionality of CD8^+T cells was increased by a metformin treatment in many cancer patients.
Among the cancer patients treated as above, the ratios of CD8^+T cells producing three kinds of cytokines (IFNγ/TNFα/IL-2), CD8^+T cells producing two kinds of cytokines (IFNγ/TNFα or IFNγ/IL-2), CD8^+T cells producing one kind of cytokine (IFNγ) with respect to the entire CD8^+T cells were calculated according to the same analysis as in (4), and shown in Table 2. The calculation results were compared between the metformin-untreated group (control) and the metformin-treated group (metformin).
This Example analyzed test results of recovery of multifunctionality of CD8^+T cells by metformin in 10 healthy subjects and 31 cancer patients (stage I) based on the results obtained by the method in Example 1. […]

[1] = total CD8^+T cells, cancer patients (stage I)

SMILES: CN(C)C(=N)N=C(N)N [metformin]
- Decrease, IFNγ 1-cytokine-producing cell (PD-1+, Tim-3+, patients/total): 10/31
- Decrease, IFNγ/IL-2 2-cytokine-producing cell (PD-1+, Tim-3+, patients/total): 8/31
- Decrease, IFNγ/TNFα 2-cytokine-producing cell (PD-1+, Tim-3+, patients/total): 9/31
- Decrease, IFNγ/TNFα/IL2 3-cytokine-producing cell (PD-1+, Tim-3+, patients/total): 7/31
- Increase, IFNγ 1-cytokine-producing cell (PD-1+, Tim-3+, patients/total): 19/31
- Increase, IFNγ/IL-2 2-cytokine-producing cell (PD-1+, Tim-3+, patients/total): 9/31
- Increase, IFNγ/TNFα 2-cytokine-producing cell (PD-1+, Tim-3+, patients/total): 11/31
- Increase, IFNγ/TNFα/IL2 3-cytokine-producing cell (PD-1+, Tim-3+, patients/total): 11/31
- No Change, IFNγ 1-cytokine-producing cell (PD-1+, Tim-3+, patients/total): 2/31
- No Change, IFNγ/IL-2 2-cytokine-producing cell (PD-1+, Tim-3+, patients/total): 14/31
- No Change, IFNγ/TNFα 2-cytokine-producing cell (PD-1+, Tim-3+, patients/total): 11/31
- No Change, IFNγ/TNFα/IL2 3-cytokine-producing cell (PD-1+, Tim-3+, patients/total): 13/31
- Decrease, IFNγ 1-cytokine-producing cell (PD-1+, Tim-3−, patients/total): 10/31
- Decrease, IFNγ/IL-2 2-cytokine-producing cell (PD-1+, Tim-3−, patients/total): 12/31
- Decrease, IFNγ/TNFα 2-cytokine-producing cell (PD-1+, Tim-3−, patients/total): 10/31
- Decrease, IFNγ/TNFα/IL2 3-cytokine-producing cell (PD-1+, Tim-3−, patients/total): 10/31
- Increase, IFNγ 1-cytokine-producing cell (PD-1+, Tim-3−, patients/total): 11/31
- Increase, IFNγ/IL-2 2-cytokine-producing cell (PD-1+, Tim-3−, patients/total): 12/31
- Increase, IFNγ/TNFα 2-cytokine-producing cell (PD-1+, Tim-3−, patients/total): 10/31
- Increase, IFNγ/TNFα/IL2 3-cytokine-producing cell (PD-1+, Tim-3−, patients/total): 14/31
- No Change, IFNγ 1-cytokine-producing cell (PD-1+, Tim-3−, patients/total): 10/31
- No Change, IFNγ/IL-2 2-cytokine-producing cell (PD-1+, Tim-3−, patients/total): 7/31
- No Change, IFNγ/TNFα 2-cytokine-producing cell (PD-1+, Tim-3−, patients/total): 11/31
- No Change, IFNγ/TNFα/IL2 3-cytokine-producing cell (PD-1+, Tim-3−, patients/total): 7/31
- Decrease, IFNγ 1-cytokine-producing cell (PD-1−, Tim-3+, patients/total): 14/31
- Decrease, IFNγ/IL-2 2-cytokine-producing cell (PD-1−, Tim-3+, patients/total): 9/31
- Decrease, IFNγ/TNFα 2-cytokine-producing cell (PD-1−, Tim-3+, patients/total): 8/31
- Decrease, IFNγ/TNFα/IL2 3-cytokine-producing cell (PD-1−, Tim-3+, patients/total): 6/31
- Increase, IFNγ 1-cytokine-producing cell (PD-1−, Tim-3+, patients/total): 10/31
- Increase, IFNγ/IL-2 2-cytokine-producing cell (PD-1−, Tim-3+, patients/total): 13/31
- Increase, IFNγ/TNFα 2-cytokine-producing cell (PD-1−, Tim-3+, patients/total): 13/31
- Increase, IFNγ/TNFα/IL2 3-cytokine-producing cell (PD-1−, Tim-3+, patients/total): 12/31
- No Change, IFNγ 1-cytokine-producing cell (PD-1−, Tim-3+, patients/total): 7/31
- No Change, IFNγ/IL-2 2-cytokine-producing cell (PD-1−, Tim-3+, patients/total): 9/31
- No Change, IFNγ/TNFα 2-cytokine-producing cell (PD-1−, Tim-3+, patients/total): 10/31
- No Change, IFNγ/TNFα/IL2 3-cytokine-producing cell (PD-1−, Tim-3+, patients/total): 13/31
- Decrease, IFNγ 1-cytokine-producing cell (PD-1−, Tim-3−, patients/total): 16/31
- Decrease, IFNγ/IL-2 2-cytokine-producing cell (PD-1−, Tim-3−, patients/total): 17/31
- Decrease, IFNγ/TNFα 2-cytokine-producing cell (PD-1−, Tim-3−, patients/total): 14/31
- Decrease, IFNγ/TNFα/IL2 3-cytokine-producing cell (PD-1−, Tim-3−, patients/total): 14/31
- Increase, IFNγ 1-cytokine-producing cell (PD-1−, Tim-3−, patients/total): 9/31
- Increase, IFNγ/IL-2 2-cytokine-producing cell (PD-1−, Tim-3−, patients/total): 12/31
- Increase, IFNγ/TNFα 2-cytokine-producing cell (PD-1−, Tim-3−, patients/total): 13/31
- Increase, IFNγ/TNFα/IL2 3-cytokine-producing cell (PD-1−, Tim-3−, patients/total): 13/31
- No Change, IFNγ 1-cytokine-producing cell (PD-1−, Tim-3−, patients/total): 6/31
- No Change, IFNγ/IL-2 2-cytokine-producing cell (PD-1−, Tim-3−, patients/total): 2/31
- No Change, IFNγ/TNFα 2-cytokine-producing cell (PD-1−, Tim-3−, patients/total): 4/31
- No Change, IFNγ/TNFα/IL2 3-cytokine-producing cell (PD-1−, Tim-3−, patients/total): 4/31
- Decrease, IFNγ 1-cytokine-producing cell (Total CD8T, patients/total): 13/31
- Decrease, IFNγ/IL-2 2-cytokine-producing cell (Total CD8T, patients/total): 15/31
- Decrease, IFNγ/TNFα 2-cytokine-producing cell (Total CD8T, patients/total): 12/31
- Decrease, IFNγ/TNFα/IL2 3-cytokine-producing cell (Total CD8T, patients/total): 12/31
- Increase, IFNγ 1-cytokine-producing cell (Total CD8T, patients/total): 5/31
- Increase, IFNγ/IL-2 2-cytokine-producing cell (Total CD8T, patients/total): 13/31
- Increase, IFNγ/TNFα 2-cytokine-producing cell (Total CD8T, patients/total): 15/31
- Increase, IFNγ/TNFα/IL2 3-cytokine-producing cell (Total CD8T, patients/total): 14/31
- No Change, IFNγ 1-cytokine-producing cell (Total CD8T, patients/total): 13/31
- No Change, IFNγ/IL-2 2-cytokine-producing cell (Total CD8T, patients/total): 3/31
- No Change, IFNγ/TNFα 2-cytokine-producing cell (Total CD8T, patients/total): 4/31
- No Change, IFNγ/TNFα/IL2 3-cytokine-producing cell (Total CD8T, patients/total): 5/31
- Increase + No Change, IFNγ/TNFα/IL2, share of patients (Total CD8T, Patients (stage I)): 61.3%
- Increase + No Change, IFNγ/TNFα/IL2 (Total CD8T, Patients (stage I), patients/total): 19/31
- multifunctionality of CD8^+T cells by a metformin treatment (many cancer patients, in comparison with healthy subjects): increased
- CD8^+T cells capable of simultaneously producing IFNγ, TNFα and IL-2, treated with metformin (primary lung cancer patients (stage I), representative example, FIG. 3, untreated with metformin 0.92%): 1.44%
- decrease in multifunctionality (three kinds of cytokines), share of patients [1]: 38.7%
- increase in multifunctionality (three kinds of cytokines), share of patients [1]: 45.2%
